Data as given in patent US20240115496A1, “A COMPOUND DRY POWDER INHALANT AND USE THEREOF” (TIANJIN UNIVERSITY OF TRADITIONAL CHINESE MEDICINE, priority 2021, published 2024).
Where a name gives a salt, the structure may show the parent alone.

Legend:
[1] = In vivo pharmacokinetics, lung tissue homogenate (UPLC-MS/MS); set-up: species or system rat; conditions: for CL/F (clearance) / Cmax / Tmax / half-life / MRT last: AH in rat lung tissue; for concentration at 2 min / concentration at 4 min / concentration at 10 min / concentration at 15 min / concentration at 30 min / concentration at 60 min / concentration at 120 min / concentration at 240 min / concentration at 360 min / Cmax / Tmax / half-life / MRT last: male; for concentration at 2 min / concentration at 4 min / concentration at 10 min / concentration at 15 min / concentration at 30 min / concentration at 60 min / concentration at 120 min / concentration at 240 min / concentration at 360 min: rat lung tissue homogenate, read-out: Drug concentration of AH in lung tissue; for Cmax / Tmax / half-life / MRT last: lung tissue (homogenate supernatant); for half-life: read-out: HLz (biological half-life) (converted); for MRT last: read-out: MRTlast (mean retention time)
Description: (§1) SPF-grade healthy SD male rats, body weight 180-220 g, purchased from SPF (Beijing) Biotechnology Co., Ltd (Certificate No. SCXK (Beijing) 2019-0010), were conventionally reared under (23±2)° C., humidity: (50±10)%. This study was conducted with the approval of the Animal Experiment Center of Tianjin University of Traditional Chinese Medicine.
(§2) 108 SPF-grade SD male rats were randomly divided into tail intravenous injection group and pulmonary administration group, with 9 time points of 2 min, 4 min, 10 min, 15 min, 30 min, 1 h, 2 h, 4 h and 6 h per group, 6 rats per time point per group. The rats were fasted for 12 h before the experiment, with water provided. The rats were weighed (to calculate the dose) and numbered, and both groups were intraperitoneally injected with 10% chloral hydrate at a dose of 2 mL/kg. Group 1 was administered BA/AH-DPI saline solution by tail intravenous injection at a dose of 9 mg/kg. Group 2 was administered 3 mg of BA/AH-DPI fine powder at the same dose by spray administration with a DP-4 tracheal insufflator (1.5 mL of air was pushed each time, 3-4 times consecutively). Blood was sampled from the abdominal aorta of the rats in both groups at the above time points after drug administration, and the rats were executed. The obtained whole blood was placed in a centrifuge tube with sodium heparin, centrifuged at 4000 r/min for 10 min, and the upper layer of plasma was separated and stored a refrigerator at −80° C. After blood collection, the thoracic cavity was quickly opened and the lungs of the rats were isolated. The small amount of floating blood on the surface of the lung tissue was washed with saline in an ice bath. The surface of the lung tissue was blotted with filter paper. The trachea was cut off, wrapped in tin foil and placed in a 10 mL centrifuge tube. The lung was weighed precisely, and stored in a refrigerator at −80° C.
The lung tissues were added to saline in a weight to volume ratio of 1:4 (g:mL). A homogenate was obtained by beating, dispersing and evenly grinding with a homogenizer under an ice water bath, and centrifuged at 6500 r/min for 20 min to obtain the supernatant of the lung tissue homogenate.
(§3) 100 μL of the plasma sample or lung tissue supernatant was precisely absorbed, and 200 μL (100 ng/mL) of methanol solution containing the internal standard was added. The mixture was vortexed and mixed for 3 min, and centrifuged at 12000 r/min for 10 min to obtain the supernatant as the finished sample. The contents of BA and AH were determined by UPLC-MS/MS method.
(§4) Electrospray ion source (ESI source); scan mode: positive (ESI+) detection; detection mode: multi-reactive ion monitoring (MRM). Electrospray voltage: 4 kV; atomization gas: N2; spray gas flow rate (Gas1): 15 psi; ion source temperature: 300° C.
(§5) Meaning of pharmacokinetic parameters: HLz was the biological half-life, i.e., the time required for the amount or blood concentration of the drug in the body to decrease by half; Tmax was the time to peak, i.e., the time required to reach the peak concentration of the drug after administration. Cmax was the peak drug concentration, i.e., the highest blood concentration that occurred after administration of the drug. AUC was the area enclosed by the blood drug concentration curve against the time axis. Vz/F was the apparent volume of distribution, the ratio constant of the amount of drug in the body to the blood concentration when the drug reached dynamic equilibrium in the body. CL/F was the clearance, i.e., the number of apparent volume of distribution of the drug removed from the body per unit time. AUMC was the first order moment of the drug-time curve, i.e. the area under the curse of the product of time and blood concentration versus time. MRTlast was the mean retention time, i.e., the average of the residence time of drug molecules in the body.

[2] = In vivo pharmacokinetics, plasma (UPLC-MS/MS); set-up: species or system rat; conditions: for half-life: read-out: HLz (biological half-life) (converted); for MRT last: read-out: MRTlast (mean retention time); for concentration at 2 min / concentration at 10 min / concentration at 15 min / concentration at 30 min / concentration at 60 min / concentration at 120 min / concentration at 240 min / concentration at 360 min / concentration at 4 min: read-out: Blood concentration of AH
Description: as §1, §2, §3, §4, §5

[3] = Particle size distribution test, laser particle size analyzer, dry dispersion; format: physicochemical
Description: The particle size distribution of DPI dry powder was measured by dry dispersion method using laser particle size analyzer, and Dv10, Dv50, Dv90, VMD (Volume median diameter) and SMD (Sauter mean diameter) were determined, respectively.

[4] = Sprague-Dawley (SD), inhaled, pulmonary administration BA/AH-DPI 9 mg/kg
[5] = Sprague-Dawley (SD), inhaled or intranasal, pulmonary administration group, BA/AH-DPI 9 mg/kg
[6] = Sprague-Dawley (SD), tail intravenous injection group, 9 mg/kg
[7] = Sprague-Dawley (SD), tail intravenous injection BA/AH-DPI saline solution 9 mg/kg
[8] = male, SD, inhaled or intranasal, AH in rat plasma, pulmonary administration group, BA/AH-DPI 9 mg/kg
[9] = male, SD, inhaled, rat plasma, pulmonary administration BA/AH-DPI 9 mg/kg
[10] = male, SD, AH in rat plasma, tail intravenous injection group, 9 mg/kg
[11] = male, SD, rat plasma, tail intravenous injection BA/AH-DPI saline solution 9 mg/kg
[12] = male, Sprague-Dawley (SD), rat plasma, tail intravenous injection BA/AH-DPI saline solution 9 mg/kg

Nc1c(Br)cc(Br)cc1CNC1CCC(O)CC1 (stereo not drawn) [AH, ambroxol hydrochloride]
CL/F (clearance) ([1]; pulmonary administration group, BA/AH-DPI 9 mg/kg): 876.24 ± 146.55 g/h/kg
CL/F (clearance) ([1]; tail intravenous injection group, 9 mg/kg): 1454.72 ± 257.24 g/h/kg
concentration at 2 min ([1]; SD, tail intravenous injection BA/AH-DPI saline solution 9 mg/kg): 3230 ± 973 ng/mL
concentration at 2 min [1, 4]: 7610 ± 1750 ng/mL
concentration at 4 min [1, 4]: 5150 ± 879 ng/mL
concentration at 10 min [1, 4]: 2450 ± 384 ng/mL
concentration at 15 min [1, 4]: 1320 ± 524 ng/mL
concentration at 30 min [1, 4]: 798 ± 289 ng/mL
concentration at 60 min [1, 4]: 503 ± 200 ng/mL
concentration at 120 min [1, 4]: 256 ± 139 ng/mL
concentration at 240 min [1, 4]: 153 ± 60 ng/mL
concentration at 360 min [1, 4]: 66.2 ± 38.2 ng/mL
Cmax [1, 5]: 30400 ± 6970 ng/g
Tmax [1, 5]: 2.34 ± 0.78 min
half-life [1, 5]: 91.8 ± 26.4 min
MRT last [1, 5]: 72.6 ± 12 min
Cmax [1, 6]: 12900 ± 3890 ng/g
Tmax [1, 6]: 1.98 min
half-life [1, 6]: 72.6 ± 11.4 min
MRT last [1, 6]: 60.6 ± 7.2 min
concentration at 4 min [1, 7]: 1780 ± 454 ng/mL
concentration at 10 min [1, 7]: 1230 ± 183 ng/mL
concentration at 15 min [1, 7]: 1030 ± 210 ng/mL
concentration at 30 min [1, 7]: 780 ± 243 ng/mL
concentration at 60 min [1, 7]: 352 ± 83.1 ng/mL
concentration at 120 min [1, 7]: 135 ± 58.9 ng/mL
concentration at 240 min [1, 7]: 68.4 ± 24.5 ng/mL
concentration at 360 min [1, 7]: 23.4 ± 10.5 ng/mL
CL/F (clearance) ([2]; AH in rat plasma, tail intravenous injection group, 9 mg/kg): 169.3805 ± 53.272 mL/min/kg
Cmax [2, 8]: 1770 ± 382 ng/mL
CL/F ([2]; male, SD, inhaled or intranasal, AH in rat plasma, pulmonary administration group, BA/AH-DPI 9 mg/kg, read-out: CL/F (clearance) (converted)): 237 mL/min/kg
half-life [2, 8]: 109 ± 39.6 min
MRT last [2, 8]: 49.8 ± 6 min
Vd/F ([2]; male, SD, inhaled or intranasal, AH in rat plasma, pulmonary administration group, BA/AH-DPI 9 mg/kg, read-out: Vz/F (apparent volume of distribution)): 37.2 ± 15.6 L/kg
bioavailability ([2]; male, SD, inhaled, rat plasma, pulmonary administration of BA/AH-DPI vs tail intravenous injection, 9 mg/kg, read-out: Absolute bioavailability): 53.5%
concentration at 2 min [2, 9]: 763 ± 101 ng/mL
concentration at 10 min [2, 9]: 1130 ± 170 ng/mL
concentration at 15 min [2, 9]: 464 ± 191 ng/mL
concentration at 30 min [2, 9]: 280 ± 75.8 ng/mL
concentration at 60 min [2, 9]: 124 ± 35.3 ng/mL
concentration at 120 min [2, 9]: 40.2 ± 21.1 ng/mL
concentration at 240 min [2, 9]: 21 ± 6.64 ng/mL
concentration at 360 min [2, 9]: 8.57 ± 0.38 ng/mL
Cmax [2, 10]: 3300 ± 1440 ng/mL
Tmax [2, 10]: 1.98 min
half-life [2, 10]: 146 ± 53.4 min
MRT last [2, 10]: 49.2 ± 10.2 min
concentration at 10 min [2, 11]: 395 ± 142 ng/mL
concentration at 15 min [2, 11]: 306 ± 140 ng/mL
concentration at 30 min [2, 11]: 252 ± 116 ng/mL
concentration at 60 min [2, 11]: 148 ± 58.7 ng/mL
concentration at 120 min [2, 11]: 49.4 ± 23 ng/mL
concentration at 240 min [2, 11]: 33.9 ± 12.2 ng/mL
concentration at 360 min [2, 11]: 18.9 ± 6.61 ng/mL
Tmax ([2]; male, Sprague-Dawley (SD), inhaled or intranasal, AH in rat plasma, pulmonary administration group, BA/AH-DPI 9 mg/kg): 4.02 min
concentration at 4 min ([2]; male, Sprague-Dawley (SD), inhaled, rat plasma, pulmonary administration BA/AH-DPI 9 mg/kg): 1770 ± 382 ng/mL
concentration at 2 min [2, 12]: 3300 ± 1690 ng/mL
concentration at 4 min [2, 12]: 598 ± 233 ng/mL
Time of maximum blood concentration in plasma ([2]; rat, pulmonary administration of BA/AH-DPI 9 mg/kg): 4 min
D10 [3]: 0.77 μm
D50 [3]: 3.07 μm
D90 [3]: 8.43 μm
SMD (Sauter mean diameter) [3]: 1.79 μm
VMD (Volume median diameter) [3]: 3.93 μm
<3 μm ([3]; fraction of particles): 49.10%
<5 μm ([3]; fraction of particles): 70.30%
